Assay results reported in patent US11078168B2, “Substituted N-hydroxyamidinoheterocycles as modulators of indoleamine 2,3-dioxygenase” (PHENEX DISCOVERY VERWALTUNGS-GMBH, priority 2016, dated 2021).

These compounds were tested against T1, Indoleamine 2,3-dioxygenase (Homo sapiens, UniProt P14902) (assay: SKOV-3 cellular Indoleamine 2,3-dioxygenase assay). Conditions: SKOV-3 cells, 50 ng/ml Interferon gamma, 100 μM L-Tryptophan, 24 hours, N-Formylkynurenin fluorescence detection; read-out: cell based activity.
T1 construct: endogenous in cells; host or cells: SKOV-3 (ATCC HTB-77), stimulated with interferon gamma
Experimental: SKOV-3 cellular Indoleamine 2,3-dioxygenase assay
SKOV-3 cells were obtained from the American Type Culture Collection (ATCC® HTB-77™) and maintained in McCoy's medium (Pan Biotech) supplemented with 10% fetal bovine serum and 1% Penicilin/Streptomycin. Cells were kept at 37° C. in a humidified incubator with 5% CO2. For assay preparation, cells were seeded at a density of 2*10^5/ml into black clear bottom 96 well plates in 100 μl medium/well supplemented with 50 ng/ml Interferon gamma (eBioscience, Thermo Fisher Scientific). After cells fully adhered to the plate, dilution series of compounds were added in medium containing additional L-Tryptophan to a final L-Tryptophan concentration of 100 μM. The cells were incubated for 24 hours. Detection of produced N-Formylkynurenin was performed by addition of 3-Methylpiperidine to a final concentration of 200 mM. The plates were sealed and heated to 65° C. for 20 minutes in a water bath. After cooling the fluorescence of each well was recorded with a Victor™X4 (PerkinElmer) plate reader at an emission wavelength of 535 nm and excitation at 405 nm (Tomek et al.; Anal Bioanal Chem (2013) 405:2515-2524., Tomek et al.; Biochim Biophys Acta. 2015 September; 1850(9):1772-80).

T1 sequence (P14902 whole entry): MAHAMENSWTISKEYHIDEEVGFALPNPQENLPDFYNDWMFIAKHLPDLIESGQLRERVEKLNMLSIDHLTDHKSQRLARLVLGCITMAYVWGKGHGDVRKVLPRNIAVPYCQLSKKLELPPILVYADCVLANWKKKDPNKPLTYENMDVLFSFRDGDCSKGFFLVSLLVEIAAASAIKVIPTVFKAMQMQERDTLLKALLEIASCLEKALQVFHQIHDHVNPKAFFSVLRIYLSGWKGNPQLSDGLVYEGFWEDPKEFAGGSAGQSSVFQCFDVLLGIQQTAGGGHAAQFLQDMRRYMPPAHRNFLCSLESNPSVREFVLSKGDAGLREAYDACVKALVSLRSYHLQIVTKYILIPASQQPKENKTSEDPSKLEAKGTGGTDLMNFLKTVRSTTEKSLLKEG

Going from `CC(CNS(N)(=O)=O)Oc1nonc1C(=NO)Nc1ccc(F)c(Cl)c1` (single isomer, unassigned) [16/1, N-(3-Chloro-4-fluorophenyl)-N′-hydroxy-4-((1-(sulfamoylamino)propan-2-yl)oxy)-1,2,5-oxadiazole-3-carboximidamide] to `NS(=O)(=O)NCCOc1nonc1/C(=N/O)Nc1ccc(F)c(Cl)c1` [6/1], the IC50 falls from over 1000 nM to under 100 nM.

`C[C@@H](CSc1nonc1C(=NO)Nc1ccc(F)c(C(F)F)c1)NC(=O)CS(N)(=O)=O` (single isomer, unassigned) [114/1] and `CC(CSc1nonc1C(=NO)Nc1ccc(F)c(C(F)F)c1)NC(=O)CS(N)(=O)=O` (single isomer, unassigned) [Example 114, N-(1-((4-(N-(3-(difluoromethyl)-4-fluorophenyl)-N′-hydroxycarbamimidoyl)-1,2,5-oxadiazol-3-yl)thio)propan-2-yl)-2-sulfamoylacetamide] cannot be ordered by IC50: under 100 nM for the first, under 100 nM for the second.

`C[C@H](CSc1nonc1C(=NO)Nc1ccc(F)c(C(F)F)c1)NC(=O)CCS(N)(=O)=O` (single isomer, unassigned) [114/2] and `C[C@@H](CSc1nonc1C(=NO)Nc1ccc(F)c(C(F)F)c1)NC(=O)CCS(N)(=O)=O` (single isomer, unassigned) [114/3] cannot be ordered by IC50: under 100 nM for the first, under 100 nM for the second.

`C[C@H](CSc1nonc1/C(=N/O)Nc1ccc(F)c(Br)c1)NC(=O)CS(N)(=O)=O` (single isomer, unassigned) [114/4] and `C[C@@H](CSc1nonc1/C(=N/O)Nc1ccc(F)c(Br)c1)NC(=O)CS(N)(=O)=O` (single isomer, unassigned) [114/5] cannot be ordered by IC50: under 100 nM for the first, under 100 nM for the second.

Going from `CC(CNS(N)(=O)=O)Oc1nonc1C(=NO)Nc1ccc(F)c(Cl)c1` (single isomer, unassigned) [Example 16, N-(3-Chloro-4-fluorophenyl)-N′-hydroxy-4-((1-(sulfamoylamino)propan-2-yl)oxy)-1,2,5-oxadiazole-3-carboximidamide] to `CS(=O)(=O)NCCOc1nonc1C(=NO)Nc1ccc(F)c(Cl)c1` [1/1], the IC50 falls from over 1000 nM to under 100 nM. The second is the more potent here.

`CC(CSc1nonc1C(=NO)Nc1ccc(F)c(C(F)F)c1)NC(=O)CC(N)=O` (single isomer, unassigned) [Example 115, N^1-(1-((4-(N-(3-(Difluoromethyl)-4-fluorophenyl)-N′-hydroxycarbamimidoyl)-1,2,5-oxadiazol-3-yl)thio)propan-2-yl)malonamide] and `NC(=O)CS(=O)(=O)NCCOc1nonc1C(=NO)Nc1ccc(F)c(C(F)F)c1` [4/2] cannot be ordered by IC50: under 100 nM for the first, under 100 nM for the second.

`CC(CSc1nonc1C(=NO)Nc1ccc(F)c(C(F)F)c1)NC(=O)CC(N)=O` (single isomer, unassigned) [Example 115/1, N^1-(1-((4-(N-(3-(difluoromethyl)-4-fluorophenyl)-N′-hydroxycarbamimidoyl)-1,2,5-oxadiazol-3-yl)thio)propan-2-yl)malonamide] and `NS(=O)(=O)NCCOc1nonc1C(=NO)Nc1ccc(F)c(C(F)F)c1` [6/2] cannot be ordered by IC50: under 100 nM for the first, under 100 nM for the second.

Compared with `O=S(=O)(NCCOc1nonc1C(=NO)Nc1ccc(F)c(Cl)c1)C(F)(F)F` [1/2], `O=S(=O)(NCCOc1nonc1C(=NO)Nc1ccc(F)c(Cl)c1)C(F)F` [1/3] is lower in IC50: over 1000 nM for the first, under 100 nM for the second. The second is the more potent here.

`C[S+]([O-])NCCOc1nonc1C(=NO)Nc1ccc(F)c(Cl)c1` (centres unmarked) [1/4] and `CS(=O)(=O)CCCOc1nonc1C(=NO)Nc1ccc(F)c(Cl)c1` [20/1, N-(3-Chloro-4-fluorophenyl)-N′-hydroxy-4-(3-(methylsulfonyl)propoxy)-1,2,5-oxadiazole-3-carboximidamide] fall in the same range of IC50: 100 to 1000 nM for the first, 100 to 1000 nM for the second.

`Nc1c(NCCOc2nonc2C(=NO)Nc2ccc(F)c(Br)c2)c(=O)c1=O` [2/1] and `Nc1c(NCCCOc2nonc2C(=NO)Nc2ccc(F)c(Cl)c2)c(=O)c1=O` [2/4] cannot be ordered by IC50: under 100 nM for the first, under 100 nM for the second.

First: Nc1c(NCCOc2nonc2C(=NO)Nc2ccc(F)c(C(F)F)c2)c(=O)c1=O [2/3]
Second: Nc1c(NCCOc2nonc2C(=NO)Nc2cccc(C(F)F)c2)c(=O)c1=O [2/7]
The IC50 of the first is lower: under 100 nM for the first, 100 to 1000 nM for the second. The first is the more potent here.

`Nc1c(NCCOc2nonc2C(=NO)Nc2ccc(F)c(C(F)(F)F)c2)c(=O)c1=O` [2/5] and `Nc1c(NCCOc2nonc2C(=NO)Nc2cccc(C(F)(F)F)c2)c(=O)c1=O` [2/6] cannot be ordered by IC50: under 100 nM for the first, under 100 nM for the second.

First: N[C@@H](CC(=O)NCCOc1nonc1C(=NO)Nc1ccc(F)c(Cl)c1)C(=O)O [3/1]
Second: NC(=O)CC(=O)NCCOc1nonc1C(=NO)Nc1ccc(F)c(Cl)c1 [7/1, N^1-(2-((4-(N-(3-chloro-4-fluorophenyl)-N′-hydroxycarbamimidoyl)-1,2,5-oxadiazol-3-yl)oxy)ethyl)malonamide]
The IC50 of the first is higher: 100 to 1000 nM for the first, under 100 nM for the second. The second is the more potent here.

`O=C(NCCOc1nonc1C(=NO)Nc1ccc(F)c(Cl)c1)C1(O)CNC1` [3/2] and `O=C(NCCOc1nonc1C(=NO)Nc1ccc(F)c(Cl)c1)C1(O)CC1` [9/12] fall in the same range of IC50: 100 to 1000 nM for the first, 100 to 1000 nM for the second.

Compared with `O=C(NCCOc1nonc1C(=NO)Nc1ccc(F)c(Cl)c1)C1(F)CNC1` [3/3], `O=C(NCCOc1nonc1C(=NO)Nc1ccc(F)c(Cl)c1)C1CC1` [9/3] is lower in IC50: 100 to 1000 nM for the first, under 100 nM for the second.

`NC(C(=O)NCCOc1nonc1C(=NO)Nc1ccc(F)c(Cl)c1)C(F)(F)F` (centres unmarked) [3/4] and `CS(=O)(=O)CC(=O)NCCOc1nonc1C(=NO)Nc1ccc(F)c(Cl)c1` [9/15] cannot be ordered by IC50: under 100 nM for the first, under 100 nM for the second.

`NC(=O)CS(=O)(=O)NCCOc1nonc1C(=NO)Nc1ccc(F)c(C(F)(F)F)c1` [4/1] and `NS(=O)(=O)CC(=O)NCCOc1nonc1C(=NO)Nc1ccc(F)c(C(F)(F)F)c1` [9/21] cannot be ordered by IC50: under 100 nM for the first, under 100 nM for the second.

`NS(=O)(=O)NCCOc1nonc1C(=NO)Nc1cccc(C(F)F)c1` [6/3] and `NS(=O)(=O)CC(=O)NCCOc1nonc1C(=NO)Nc1cccc(C(F)(F)F)c1` [9/20] fall in the same range of IC50: 100 to 1000 nM for the first, 100 to 1000 nM for the second.

`CN(CCOc1nonc1C(=NO)Nc1ccc(F)c(Cl)c1)S(N)(=O)=O` [6/4] and `CNS(=O)(=O)N(C)CCOc1nonc1C(=NO)Nc1ccc(F)c(Cl)c1` [6/5] fall in the same range of IC50: 100 to 1000 nM for the first, 100 to 1000 nM for the second.

Compared with `CN(C)S(=O)(=O)NCCOc1nonc1C(=NO)Nc1ccc(F)c(Cl)c1` [6/6], `CN(C)C(=O)C(=O)NCCOc1nonc1C(=NO)Nc1ccc(F)c(Cl)c1` [9/19] is higher in IC50: under 100 nM for the first, 100 to 1000 nM for the second.

First: COc1nonc1/C(=N/O)Nc1ccc(F)c(Br)c1 [8/1, N-(3-Bromo-4-fluorophenyl)-N-hydroxy-4-methoxy-1,2,5-oxadiazole-3-carboximidamide]
Second: COc1nonc1C(=NO)Nc1ccc(F)c(Cl)c1 [8/2]
The IC50 of the first is lower: under 100 nM for the first, 100 to 1000 nM for the second. The first is the more potent here.

`O/N=C(\Nc1ccc(F)c(Br)c1)c1nonc1OCC(F)(F)F` [8/3, N-(3-Bromo-4-fluorophenyl)-N′-hydroxy-4-(2,2,2-trifluoroethoxy)-1,2,5-oxadiazole-3-carboximidamide] and `CN(CCOc1nonc1C(=NO)Nc1ccc(F)c(Cl)c1)C(=O)CS(N)(=O)=O` [9/22] fall in the same range of IC50: 100 to 1000 nM for the first, 100 to 1000 nM for the second.

Compared with `O=C(NCCOc1nonc1C(=NO)Nc1ccc(F)c(Cl)c1)c1ccc(F)cc1` [9/1], `O=C(O)c1ccc(C(=O)NCCOc2nonc2C(=NO)Nc2ccc(F)c(Cl)c2)cc1` [9/9] is higher in IC50: 100 to 1000 nM for the first, over 1000 nM for the second. The first is the more potent here.

Compared with `O=C(NCCOc1nonc1C(=NO)Nc1ccc(F)c(Cl)c1)c1ccc2[nH]ccc2c1` [9/2], `O=C(O)c1cccc(C(=O)NCCOc2nonc2C(=NO)Nc2ccc(F)c(Cl)c2)c1` [9/13] is higher in IC50: 100 to 1000 nM for the first, over 1000 nM for the second.

`O=C(NCCOc1nonc1C(=NO)Nc1ccc(F)c(Cl)c1)c1cnccn1` [9/4] and `O=C(NCCOc1nonc1C(=NO)Nc1ccc(F)c(Cl)c1)c1nnc[nH]1` [9/5] fall in the same range of IC50: 100 to 1000 nM for the first, 100 to 1000 nM for the second.

First: O=C(CC1SC(=O)NC1=O)NCCOc1nonc1C(=NO)Nc1ccc(F)c(Cl)c1 (centres unmarked) [9/6]
Second: NS(=O)(=O)CC(=O)NCCOc1nonc1C(=NO)Nc1ccc(F)c(Cl)c1 [9/14]
The IC50 of the first is higher: over 1000 nM for the first, 100 to 1000 nM for the second.

`O=C(NCCCOc1nonc1C(=NO)Nc1ccc(F)c(Cl)c1)C(O)CO` (centres unmarked) [9/7] and `CNC(=O)C(=O)NCCOc1nonc1C(=NO)Nc1ccc(F)c(Cl)c1` [9/17] fall in the same range of IC50: 100 to 1000 nM for the first, 100 to 1000 nM for the second.

`O=C(NCCCOc1nonc1C(=NO)Nc1ccc(F)c(Cl)c1)c1nn[nH]n1` [9/8] and `O=C(NCCOc1nonc1C(=NO)Nc1ccc(F)c(Cl)c1)c1n[nH]c(=O)[nH]1` [9/10] cannot be ordered by IC50: over 1000 nM for the first, over 1000 nM for the second.

First: CC(C)(C(=O)O)C(=O)NCCOc1nonc1C(=NO)Nc1ccc(F)c(Cl)c1 [9/11]
Second: CC(C)(C)OC(=O)NC1(C(=O)NCCOc2nonc2C(=NO)Nc2ccc(F)c(Cl)c2)COC1 [9/16]
The IC50 of the first is higher: over 1000 nM for the first, 100 to 1000 nM for the second. The second is the more potent here.

First: CC(C)(C)OC(=O)NC1(C(=O)NCCOc2nonc2C(=NO)Nc2ccc(F)c(Cl)c2)CC1(F)F (centres unmarked) [9/18]
Second: CN1CCN(CCOc2nonc2C(=NO)Nc2ccc(F)c(Cl)c2)CC1 [10/1, N-(3-Chloro-4-fluorophenyl)-N′-hydroxy-4-(2-(4-methylpiperazin-1-yl)ethoxy)-1,2,5-oxadiazole-3-carboximidamide]
The IC50 of the first is higher: over 1000 nM for the first, 100 to 1000 nM for the second.

`CS(=O)(=O)CCS(=O)(=O)NCCSc1nonc1C(=NO)Nc1ccc(F)c(C(F)F)c1` [100/1, N-(3-(Difluoromethyl)-4-fluorophenyl)-N′-hydroxy-4-((2-((2-(methylsulfonyl)ethyl)sulfonamido)ethyl)thio)-1,2,5-oxadiazole-3-carboximidamide] and `NS(=O)(=O)NCCSc1nonc1C(=NO)Nc1ccc(F)c(Cl)c1` [101/1, N-(3-Chloro-4-fluorophenyl)-N′-hydroxy-4-((2-(sulfamoylamino)ethyl)thio)-1,2,5-oxadiazole-3-carboximidamide] cannot be ordered by IC50: under 100 nM for the first, under 100 nM for the second.
